Tests used:
CL141 = assay: Cytotoxicity, sulforhodamine B (SRB) assay; assay type: cell-based; details: read-out: IC50 for prochlorperazine metabolites, CL141 parental cells
Method: (§1) Cells were plated in 96-well plates at a density of 2000 cells per well in triplicate. The cells were treated on the third day (to ensure proper plating efficiency and vitality) to indicated agents for 48 hrs. […] Cytotoxicity was assessed using the sulforhodamine B (SRB) assay (23). Briefly, the medium was discarded, and the adherent cells were fixed by 100 μl of cold 10% trichioroacetic acid (w/v) in each well for 1 h at 4° C. After fixation, cells were stained with 100 μl/well of 0.4% (w/v, in 1% acetic acid) SRB solution for 30 min at room temperature, and then washed 5 times with 1% acetic acid. After air-drying, 100 μl of 10 mM Tris base was added to each well and the absorbance was read at 530 nm. Cytotoxicity is expressed as the percent of cells in drug treated wells relative to number of cells in the solvent only control (set to 100%). Each experiment was performed independently at least 2 times in triplicate and cytotoxicity is given as means ±SD.
(§2) A549, A549-ON, CL97, CL141, HCC827, and H441 were lung adenocarcinoma cell lines. CL152, H2170, and H226 were squamous cell carcinoma cell lines. Cell viability was determined by SRB assay. […] To determine whether side population (SP) cells, which represent a cell population with CSC characteristics, exist in NSCLC cell lines, we stained the cells with the fluorescent dye, Hoechst 33342, and analyzed the cells with flow cytometry.

CL152 [1] = assay: Cytotoxicity, sulforhodamine B (SRB) assay; assay type: cell-based; details: read-out: IC50 for prochlorperazine metabolites, CL152 parental cells
Method: as §1, §2

J5 = assay: Tumor spheroid (sphere formation) assay; assay type: cell-based; details: J5, hepatocellular carcinoma
H441 = assay: Aldefluor assay (ALDH-positive cell population); assay type: cell-based, human; details: H441, adenocarcinoma
Method: Briefly, single cells obtained from cell cultures were incubated in an Aldefluor assay buffer containing an ALDH substrate (bodipy-aminoacetaldehyde, BAAA) for 50 minutes at 37° C.

NCI-H441 = assay: Subcutaneous NCI-H441 tumor in NOD/SCID mice; assay type: in vivo; details: 5 mg/kg, 5 days/week, i.p.; four weeks post treatment; vs vehicle, p<0.01
Method: In the first trial, human lung cancer cell line NCI-H441 (purchased from ATCC, 1 million cells/injection) cells were subcutaneously injected into the right flank of NOD/SCID mice (female, 4-6 weeks old). […] Over the period of 4 weeks, tumorigenesis in both groups was measured using a caliper on a weekly basis. The change in tumor size was expressed as in fold change and plotted over time.
In the first trial (FIG. 3A), NCI-H441 (1×10^6 cells/injection) cells were subcutaneously injected into the right flank of NOD/SCID mice (female, 4-6 weeks old).

[2] = tested on: CL97 (EGFR T790M and G719A mutations)
Method: In the first drug combination test, NCI-H441 cells expressing firefly luciferase (6×10^5 cells/injection) were injected into NOD/SCID mice (4-6 week of age) via the lateral tail vein for tumor establishment. […] Tumor burden from different groups were recorded by caliper. The change in tumor size was expressed as in fold change and plotted over time. Subsequently, we performed another set of drug combination test. […] For lung adenocarcinoma, the standard drug combination is pemetrexed and cisplatin whereas are used gemcitabine and cisplatin for lung squamous carcinoma. […] CL97 cancer cells (1.5×10^6 cells per injection) were injected subcutaneously into NOD/SCID mice to establish in viva tumor model.

[3] = tested on: lung adenocarcinoma with EGFR-L858R mutation; assay: Case study, lung adenocarcinoma patient; assay type: in vivo, human; details: person; prochlorperazine along with pemetrexed; last followed-up CT
CL152 [4] = assay: Tumor spheroid (sphere formation) assay
Method: In brief, single cells were plated in 6-well ultralow attachment plates (Coming Inc.) at a density of 2,000 cells/mL in tumor spheroid culture medium, DMEM/F12 supplemented with 1% N2 Supplement (Invitrogen), 10 ng/mL basic fibroblast growth factor (Sigma-Aldrich), 10 ng/mL epidermal growth factor (Invitrogen) with 1% penicillin/streptomycin (Invitrogen) at 37° C. in a humidified atmosphere of 95% air and 5% CO2. Cells were cultured twice per week. When passaged, tumor spheres were harvested. Spheroids were dissociated with TrypLE™ (Invitrogen). Spheroids cell counting using the Trypan Blue Exclusion method.

drug resistant cancer = assay: Clinical observation study, prochlorperazine added as maintenance therapy; details: after prochlorperazine treatment added to salvage therapy; patients
Method: All of the cases were treated according to clinical guideline. Life expectancy of all patients was less than 3 months.

For `CN1CCN(CCCN2c3ccccc3Sc3ccc(Cl)cc32)CC1` [prochlorperazine], the IC50 (CL141) was 10 to 20 µM, the IC50 (CL152 [1]) was 10 to 20 µM and the Sphere formation (J5) was >5 µM. The “ALDH^+ assay” value (H441) was <10 µM, the tumor growth (NCI-H441) was “effective in suppressing tumor growth” and the “tumor growth, combined with gefitinib” value ([2]; 100 mg/kg gefitinib combined with 5 mg/kg prochlorperazine, p<0.001) was “significantly inhibitory effects of tumor growth”. For the same compound, the “tumor growth, single agent” value ([2]; gefitinib 100 mg/kg or prochlorperazine 5 mg/kg alone) was “significantly inhibitory effects of tumor growth”, the “tumor and pleural effusion on CT” value [3] was “reduced significantly” and the Sphere formation (CL152 [4]; CL152, squamous cell carcinoma) was 0 to 5 µM. For the same compound, the “combination effect with gemcitabine, sphere-formation assay” value (CL152 [4]; CL152 spheres, in combination with gemcitabine) was “synergistic effect” and the “Median PFS (progression-free survival)” value (drug resistant cancer) was 12.8 (7.0-20.1) months.

From patent US20170105999A1, “METHOD FOR TREATING DRUG RESISTANT CANCER” (NATIONAL YANG MING UNIVERSITY, priority 2014, published 2017)
